{
  "source": "patent US8268767B2",
  "about": "“Personal wash cleanser comprising defined alkanoyl compounds, defined fatty acyl isethionate surfactant product and skin or hair benefit agent” (priority 2010, dated 2012)",
  "system": "skin (patch test sites on the intrascapular area of the back)",
  "assay": "Patch Test, 14-day cumulative irritation test",
  "settings": "for Patch test Total irritation score: cleansers diluted to 25% w/w, 14-day cumulative score",
  "experimental": "This was randomized, double-blind study. A sufficient number of subjects were recruited to ensure that 25 subjects completed the study. The 14-day cumulative irritation test was conducted as follows. Patching occurred for 14 consecutive days, except on Sundays. Patches applied on Saturday were left in place until Monday, when freshly prepared patches were applied. The designated patch test sites were approximately 2 cm×2 cm on the intrascapular area of the back. Approximately 0.2 mL of the test product was placed onto a Parke-Davis Readi-Bandage® occlusive patch that measured 2 cm×2 cm. Solutions were made by diluting the cleansers to 25% w/w in distilled water. The patch was then applied to the designated test site. The patches were secured with hypoallergenic tape (Scanpor {Allerderm} as needed). A 0.5% sodium dodecyl sulfate (SDS) solution was used as the control in the test.\nEach day following application, the patches were removed, the sites evaluated and identical patches reapplied to the same test sites. All evaluations were made using the following 6-point scoring system: • 0=No evidence of any effect • +=Barely perceptible (minimal, faint, uniform or spotty erythema) numerically equivalent to 0.5 • 1=Mild (pink, uniform erythema covering most of the contact site) • 2=Moderate (pink-red, erythema uniform in the entire contact site) • 3=Marked (bright red erythema with/without petechiae or papules) • 4=Severe (deep red erythema with/without vesiculation or weeping)\nIf a dermal reaction of 3 or 4 occur with any of the test articles at any point during the study, further patch testing on that subject was terminated at the test site involved, and the attained score was assigned to that site for the subsequent scheduled test days.\nCumulative irritation scores, which were the sum of the numerical irritation grades assigned daily during the 14-day test period, were calculated at the end of the study to compare mildness of the test products. […] The data were statistically analyzed using Tukey-Kramer Comparison, and statistical significance was determined at the 95% confidence level.",
  "key": {"[1]": {"settings": "first patch test of Table 1 (0.5% SDS control = 783)"}, "[2]": {"settings": "second patch test of Table 1 (0.5% SDS control = 912)"}},
  "data": [
    {"smiles": "CCCCCCCCCCCCOS(=O)(=O)[O-].[Na+]", "note": "[0.5% SDS Solution, sodium dodecyl sulfate]", "values": [
      {"measurement": "Total irritation score compared to 0.5% SDS solution", "setting": "[1]", "value": 100, "unit": "%"},
      {"measurement": "Patch test Total irritation score", "setting": "[1]", "value": 783},
      {"measurement": "Total irritation score compared to 0.5% SDS solution", "setting": "[2]", "value": 100, "unit": "%"},
      {"measurement": "Patch test Total irritation score", "setting": "[2]", "value": 912}
    ]}
  ]
}
